Laboratory results as given in PMC10999543, “Identification of kinase modulators as host-directed therapeutics against intracellular methicillin-resistant Staphylococcus aureus” (Frontiers in Cellular and Infection Microbiology, 2024).
Read-outs that look alike come from different tables or passages of the source.

How the values were obtained:
[1] = tested on: intracellular MRSA; format: cell-based, Staphylococcus aureus; details: for %GFP+ rep 1 / z-scoreMRSA+ rep 1: replicate 1; for %GFP+ rep 2 / z-scoreMRSA+ rep 2: replicate 2; for %GFP+ rep 3 / z-scoreMRSA+ rep 3: replicate 3; for z-scoreMRSA+ mean: mean of 3 replicates
How it was run: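 HeLa cells infected with GFP-MRSA (MOI ~6.8), gentamicin-cleared, then incubated overnight at 37°C with inhibitors plus 5 µg/ml gentamicin; DMSO as negative control, triplicates. Flow cytometry gave % GFP-positive cells and cell count (viability surrogate); hits by plate z-score (MRSA ≤ -2, HeLa count ≥ -3).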

[2] = tested on: HeLa cells; assay: Compound screen by flow cytometry: HeLa cell count as surrogate readout of cell viability (z-scoreHeLa); format: cell-based, human; details: for cell count rep 1 / z-scoreHeLa rep 1: replicate 1; for cell count rep 2 / z-scoreHeLa rep 2: replicate 2; for cell count rep 3 / z-scoreHeLa rep 3: replicate 3; for z-scoreHeLa mean: mean of 3 replicates
How it was run: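 HeLa cells were infected with GFP-MRSA (mean MOI 6.8 ± 4.6) for 1 h, and extracellular bacteria were killed with 30 µg/ml gentamicin. Cells were then incubated overnight with kinase inhibitors in 5 µg/ml gentamicin, in triplicate against DMSO controls. Flow-cytometric cell count served as a viability surrogate, expressed as a plate z-score.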

[3] = PKIS compounds raw data, MRSA-infected HeLa cells
[4] = Yes/No: effect without cell death
[5] = compound screen, MRSA-infected HeLa cells
[6] = PKIS compounds raw data, HeLa cell count
[7] = compound screen, HeLa cell count
[8] = PKIS compound screen, Yes/No call
[9] = PKIS compound screen, Yes/No call (effect without cell death)
[10] = PKIS compound screen raw data, MRSA-infected HeLa cells
[11] = PKIS compound screen, MRSA-infected HeLa cells
[12] = PKIS compound screen, Yes/No call on z-scoreMRSA+
[13] = PKIS compound screen raw data, HeLa cell count
[14] = PKIS compound screen, HeLa cell count
[15] = PKIS compound screen, Yes/No call on z-scoreHeLa

SMILES	%GFP+ rep 1 [1, 3] [%]	%GFP+ rep 2 [1, 3] [%]	%GFP+ rep 3 [1, 3] [%]	effect ([1]; Yes/No call from z-scoreMRSA+)	hit [1, 4]	z-scoreMRSA+ mean [1, 5]	cell count rep 1 [2, 6]	cell count rep 2 [2, 6]	cell count rep 3 [2, 6]	effect [1, 8]	hit [1, 9]	z-scoreMRSA+ mean ([1]; PKIS compound screen)	z-scoreMRSA+ rep 1 ([1]; PKIS compound screen)	z-scoreMRSA+ rep 2 ([1]; PKIS compound screen)	z-scoreMRSA+ rep 3 ([1]; PKIS compound screen)	cell death [2, 8]	z-scoreHeLa mean ([2]; PKIS compound screen)	z-scoreHeLa rep 1 ([2]; PKIS compound screen)	z-scoreHeLa rep 2 ([2]; PKIS compound screen)	z-scoreHeLa rep 3 ([2]; PKIS compound screen)	further results
Cc1ccc2c(c1)C(=NNc1ccc(S(N)(=O)=O)cc1)C(=O)N2 [GW275944X]	14.2	14.3	12.8	No	No	-0.10	3417	4418	6627												z-scoreMRSA+ rep 1 [1, 5]: 0.33; z-scoreMRSA+ rep 2 [1, 5]: 0.27; z-scoreMRSA+ rep 3 [1, 5]: -0.91; cell death ([2]; Yes/No call from z-scoreHeLa): No; z-scoreHeLa mean [2, 7]: -0.43; z-scoreHeLa rep 1 [2, 7]: -1.23; z-scoreHeLa rep 2 [2, 7]: 0.11; z-scoreHeLa rep 3 [2, 7]: -0.16
CS(=O)(=O)Nc1ccc(N/C=C2\C(=O)Nc3ccccc32)cc1 [GW278681X]	11.9	13.7	12.4	No	No	-0.46	4258	4720	6630												z-scoreMRSA+ rep 1 [1, 5]: -0.41; z-scoreMRSA+ rep 2 [1, 5]: 0.07; z-scoreMRSA+ rep 3 [1, 5]: -1.03; cell death ([2]; Yes/No call from z-scoreHeLa): No; z-scoreHeLa mean [2, 7]: -0.10; z-scoreHeLa rep 1 [2, 7]: -0.47; z-scoreHeLa rep 2 [2, 7]: 0.34; z-scoreHeLa rep 3 [2, 7]: -0.16
Cc1cc(Cl)cc2c1NC(=O)C2=NNc1ccc(S(N)(=O)=O)cc1 [GW279320X]	28.1	30.5	29.7				5783	6163	10033	No	No	4.85	4.78	5.69	4.09	No	1.27	0.91	1.43	1.47	
NS(=O)(=O)c1ccc(N/N=C2\C(=O)Nc3ccc(Cl)cc32)cc1 [GW280670X]	35.3	49.2	20.4				4621	4629	7741	No	No	6.79	7.09	11.94	1.34	No	0.17	-0.14	0.27	0.37	
Cn1cncc1-c1cc2c(Nc3ccc(OCc4ccccc4)cc3)ncnc2cn1 [GW281179X]	25.8	26.7	25.0				2614	2008	4357	No	No	-0.18	-0.25	0.13	-0.42	No	-1.83	-2.06	-2.65	-0.79	%GFP+ rep 1 [1, 10]: 19.2%; %GFP+ rep 2 [1, 10]: 17.8%; %GFP+ rep 3 [1, 10]: 19.0%; z-scoreMRSA+ mean [1, 11]: -0.31; z-scoreMRSA+ rep 1 [1, 11]: 0.11; z-scoreMRSA+ rep 2 [1, 11]: -0.44; z-scoreMRSA+ rep 3 [1, 11]: -0.61; effect [1, 12]: No; cell count rep 1 [2, 13]: 28376; cell count rep 2 [2, 13]: 11001; cell count rep 3 [2, 13]: 11278; z-scoreHeLa mean [2, 14]: -1.41; z-scoreHeLa rep 1 [2, 14]: -0.31; z-scoreHeLa rep 2 [2, 14]: -2.45; z-scoreHeLa rep 3 [2, 14]: -1.49; cell death [2, 15]: No
Cc1cccc2c1NC(=O)C2=NNc1ccc(S(N)(=O)=O)cc1 [GW282536X]				No	No	-0.62															%GFP+ rep 1 [1, 10]: 21.7%; %GFP+ rep 2 [1, 10]: 20.9%; %GFP+ rep 3 [1, 10]: 20.2%; z-scoreMRSA+ rep 1 [1, 5]: -0.83; z-scoreMRSA+ rep 2 [1, 5]: -0.42; z-scoreMRSA+ rep 3 [1, 5]: -0.60; cell count rep 1 [2, 13]: 1823; cell count rep 2 [2, 13]: 2013; cell count rep 3 [2, 13]: 1046; cell death ([2]; Yes/No call from z-scoreHeLa): No; z-scoreHeLa mean [2, 7]: -2.08; z-scoreHeLa rep 1 [2, 7]: -1.82; z-scoreHeLa rep 2 [2, 7]: -1.76; z-scoreHeLa rep 3 [2, 7]: -2.65
CN(C)c1cc2c(Nc3ccc4c(cnn4Cc4ccccc4)c3)ncnc2cn1 [GW282974X]	11.5	11.2	11.8				5822	6633	11155	No	No	-0.84	-0.54	-0.77	-1.21	No	1.58	0.95	1.79	2.01	
c1ccc(COc2ccc(Nc3ncnc4ccc(-c5ccco5)cc34)cc2)cc1 [GW284372X]	11.1	12.1	12.2				4410	5123	9333	No	No	-0.74	-0.66	-0.47	-1.09	No	0.48	-0.33	0.65	1.13	
COc1cc2nccc(Nc3cccc(Oc4ccccc4)c3)c2cc1OC [GW284543A]											No										%GFP+ rep 1 [1, 10]: 19.7%; %GFP+ rep 2 [1, 10]: 21.7%; %GFP+ rep 3 [1, 10]: 21.6%; z-scoreMRSA+ mean [1, 11]: 0.70; z-scoreMRSA+ rep 1 [1, 11]: 0.58; z-scoreMRSA+ rep 2 [1, 11]: 0.96; z-scoreMRSA+ rep 3 [1, 11]: 0.55; effect [1, 12]: No; cell count rep 1 [2, 13]: 34308; cell count rep 2 [2, 13]: 33464; cell count rep 3 [2, 13]: 39414; z-scoreHeLa mean [2, 14]: 0.58; z-scoreHeLa rep 1 [2, 14]: 2.15; z-scoreHeLa rep 2 [2, 14]: -0.25; z-scoreHeLa rep 3 [2, 14]: -0.18; cell death [2, 15]: No
NS(=O)(=O)c1ccc(N/C=C2\C(=O)Nc3ccc4ncsc4c32)cc1 [GW297361X]	15.9	17.0	13.6				2950	3493	5130	No	No	0.46	0.87	1.17	-0.68	No	-1.04	-1.65	-0.59	-0.88	
CC(C)c1ccc2c(c1)NC(=O)C2=NNc1ccc(S(N)(=O)=O)cc1 [GW300653X]	12.5	13.7	13.3	No	No	-0.30	3693	3535	5783												z-scoreMRSA+ rep 1 [1, 5]: -0.21; z-scoreMRSA+ rep 2 [1, 5]: 0.07; z-scoreMRSA+ rep 3 [1, 5]: -0.77; cell death ([2]; Yes/No call from z-scoreHeLa): No; z-scoreHeLa mean [2, 7]: -0.70; z-scoreHeLa rep 1 [2, 7]: -0.98; z-scoreHeLa rep 2 [2, 7]: -0.55; z-scoreHeLa rep 3 [2, 7]: -0.56
CN(C)c1cc2c(Nc3ccc4nc(Cc5ccccc5)[nH]c4c3)ncnc2cn1 [GW301888X]	27.0	27.6	26.1				6836	7361	6557	No	No	0.0238	-0.0117	0.30	-0.22	No	0.66	0.47	0.90	0.61	
